Experimental data reported in patent US12251387B2, “Substituted quinoxalines and benzo[c][1,2,5]oxadiazoles as DNA-PK inhibitors” (Vertex Pharmaceuticals Incorporated, priority 2013, dated 2025).

Molecular target: DNA-PK (Homo sapiens, UniProt P78527)
Assay: DNA-PK Inhibition Assay (standard radiometric kinase assay, 33P-ATP, peptide substrate)
Type: biochemical
Details: radiometric assay, approximately 6 nM DNA-PK, 100 μM ATP, 45 min; fit to competitive tight-binding inhibition; read-out: Ki for the inhibition of DNA-PK
Method: Compounds were screened for their ability to inhibit DNA-PK kinase using a standard radiometric assay. Briefly, in this kinase assay the transfer of the terminal ^33P-phosphate in ^33P-ATP to a peptide substrate is interrogated. The assay was carried out in 384-well plates to a final volume of 50 μL per well containing approximately 6 nM DNA-PK, 50 mM HEPES (pH 7.5), 10 mM MgCl2, 25 mM NaCl, 0.01% BSA, 1 mM DTT, 10 μg/mL sheared double-stranded DNA (obtained from Sigma), 0.8 mg/mL DNA-PK peptide (Glu-Pro-Pro-Leu-Ser-Gln-Glu-Ala-Phe-Ala-Asp-Leu-Trp-Lys-Lys-Lys, obtained from American Peptide), and 100 μM ATP. Accordingly, compounds of the invention were dissolved in DMSO to make 10 mM initial stock solutions. Serial dilutions in DMSO were then made to obtain the final solutions for the assay. A 0.75 μL aliquot of DMSO or inhibitor in DMSO was added to each well, followed by the addition of ATP substrate solution containing ^33P-ATP (obtained from Perkin Elmer). The reaction was started by the addition of DNA-PK, peptide and ds-DNA. After 45 min, the reaction was quenched with 25 μL of 5% phosphoric acid. The reaction mixture was transferred to MultiScreen HTS 384-well PH plates (obtained from Millipore), allowed to bind for one hour, and washed three times with 1% phosphoric acid. Following the addition of 50 μL of Ultima Gold™ high efficiency scintillant (obtained from Perkin Elmer), the samples were counted in a Packard TopCount NXT Microplate Scintillation and Luminescence Counter (Packard BioScience). The Ki values were calculated using Microsoft Excel Solver macros to fit the data to the kinetic model for competitive tight-binding inhibition.

Ki [nM]	Structure (SMILES)
< 100	COc1ccc(N[C@H]2CC[C@@H](Oc3cc(N4CCOCC4)cc4nccnc34)CC2)nc1OC [Compound 583]
< 100	N#CCCN1CCC(c2cnc(N[C@H]3CC[C@@H](Oc4cc(N5CCOCC5)cc5nccnc45)CC3)nc2)CC1 [Compound 519]
< 100	c1cc(N[C@H]2CC[C@@H](Oc3cc(N4CCOCC4)cc4nccnc34)CC2)nc(N2CCOCC2)n1 [Compound 534]
< 100	c1cnc2c(O[C@H]3CC[C@@H](Nc4ccn5nccc5n4)CC3)cc(N3CCOCC3)cc2n1 [Compound 498]
< 100	Fc1c(N[C@H]2CC[C@@H](Oc3cc(N4CCOCC4)cc4nccnc34)CC2)ncnc1N1CCOCC1 [Compound 511]
< 100	CN1CCN(c2ccnc(N[C@H]3CC[C@@H](Oc4cc(N5CCOCC5)cc5nccnc45)CC3)n2)CC1 [Compound 547]
< 100	Fc1cccc(N[C@H]2CC[C@@H](Oc3cc(N4CCOCC4)cc4nccnc34)CC2)n1 [Compound 614]
< 100	CN1CCc2nc(N[C@H]3CC[C@@H](Oc4cc(N5CCOCC5)cc5nccnc45)CC3)ncc2C1 [Compound 632]
< 100	CCc1cc(N[C@H]2CC[C@@H](Oc3cc(N4CCOCC4)cc4nccnc34)CC2)nc(C)n1 [Compound 597]
< 100	c1cnc2c(O[C@H]3CC[C@@H](Nc4ncc(OCCN5CCCCC5)cn4)CC3)cc(N3CCOCC3)cc2n1 [Compound 613]
< 100	Cc1cc(N[C@H]2CC[C@@H](Oc3cc(N4CCOCC4)cc4nccnc34)CC2)n[nH]1 [Compound 637]
< 100	Fc1ccc(N[C@H]2CC[C@@H](Oc3cc(N4CCOCC4)cc4nccnc34)CC2)nc1 [Compound 622]
< 100	CN1CCN(c2cc(N[C@H]3CC[C@@H](Oc4cc(N5CCOCC5)cc5nccnc45)CC3)ncn2)CC1 [Compound 537]
< 100	Cn1cnc2c(N[C@H]3CC[C@@H](Oc4cc(N5CCOCC5)cc5nccnc45)CC3)ncnc21 [Compound 546]
< 100	c1cc(N[C@H]2CC[C@@H](Oc3cc(N4CCOCC4)cc4nccnc34)CC2)n2nccc2c1 [Compound 580]
< 100	c1cc(N[C@H]2CC[C@@H](Oc3cc(N4CCOCC4)cc4nccnc34)CC2)nc(OCCN2CCCCC2)n1 [Compound 493]
< 100	c1cc(CN2CCOCC2)nc(N[C@H]2CC[C@@H](Oc3cc(N4CCOCC4)cc4nccnc34)CC2)n1 [Compound 505]
< 100	CN1CCN(CCOc2cc(N[C@H]3CC[C@@H](Oc4cc(N5CCOCC5)cc5nccnc45)CC3)ncn2)CC1 [Compound 562]
< 100	OC1(c2cnc(N[C@H]3CC[C@@H](Oc4cc(N5CCOCC5)cc5nccnc45)CC3)nc2)COC1 [Compound 610]
< 100	Cc1cnc(N[C@H]2CC[C@@H](Oc3cc(N4CCOCC4)cc4nccnc34)CC2)c(C)c1 [Compound 595]
< 100	Cn1nc(N[C@H]2CC[C@@H](Oc3cc(N4CCOCC4)cc4nccnc34)CC2)ccc1=O [Compound 578]
< 100	CC(C)(C)OC(=O)N1CCC(c2cnc(N[C@H]3CC[C@@H](Oc4cc(N5CCOCC5)cc5nccnc45)CC3)nc2)C1 (stereo partly shown) [Compound 570]
< 100	CN1CCC(c2cnc(N[C@H]3CC[C@@H](Oc4cc(N5CCOCC5)cc5nccnc45)CC3)nc2)C1 (stereo partly shown) [Compound 568]
< 100	Clc1cnc(N[C@H]2CC[C@@H](Oc3cc(N4CCOCC4)cc4nccnc34)CC2)nc1 [Compound 485]
< 100	COCCOc1ccc(N[C@H]2CC[C@@H](Oc3cc(N4CCOCC4)cc4nccnc34)CC2)nc1 [Compound 625]
< 100	Fc1cc(N[C@H]2CC[C@@H](Oc3cc(N4CCOCC4)cc4nccnc34)CC2)ccn1 [Compound 642]
< 100	CC(C)c1ccnc(N[C@H]2CC[C@@H](Oc3cc(N4CCOCC4)cc4nccnc34)CC2)n1 [Compound 634]

Further lines, the compound ahead of its results:

Structure (SMILES)	Ki [nM]
COc1c(Cl)ncnc1N[C@H]1CC[C@@H](Oc2cc(N3CCOCC3)cc3nccnc23)CC1 [Compound 402]	< 100
COc1nc(N[C@H]2CC[C@@H](Oc3cc(N4CCOCC4)cc4nccnc34)CC2)c2cc[nH]c2n1 [Compound 383]	< 100
Oc1ncc(F)c(N[C@H]2CC[C@@H](Oc3cc(N4CCOCC4)cc4nccnc34)CC2)n1 [Compound 395]	< 100
CN(C)C(=O)c1ccnc(N[C@H]2CC[C@@H](Oc3cc(N4CCOCC4)cc4nccnc34)CC2)n1 [Compound 351]	< 100
Fc1c[nH]c2ncnc(N[C@H]3CC[C@@H](Oc4cc(N5CCOCC5)cc5nccnc45)CC3)c12 [Compound 437]	< 100
CCOc1cc(N[C@H]2CC[C@@H](Oc3cc(N4CCOCC4)cc4nccnc34)CC2)ccn1 [Compound 324]	< 100
Cn1ccc2c(N[C@H]3CC[C@@H](Oc4cc(N5CCOCC5)cc5nccnc45)CC3)ncnc21 [Compound 384]	< 100
Clc1ccc(N[C@H]2CC[C@@H](Oc3cc(N4CCOCC4)cc4nccnc34)CC2)nn1 [Compound 40]	< 100
CCc1ncnc(N[C@H]2CC[C@@H](Oc3cc(N4CC5CC(C4)O5)cc4nccnc34)CC2)c1F [Compound 318]	< 100
Cn1ccc(N[C@H]2CC[C@@H](Oc3cc(N4CCOCC4)cc4nccnc34)CC2)cc1=O [Compound 311]	< 100
NC1(c2ccc(N[C@H]3CC[C@@H](Oc4cc(N5CCOCC5)cc5nccnc45)CC3)cn2)CC1 [Compound 466]	< 100
COC(=O)[C@H](CC(C)C)NC(=O)N[C@H]1CC[C@@H](Oc2cc(N3CCOCC3)cc3nccnc23)CC1 [Compound 391]	< 100
Cc1nccc(N[C@H]2C[C@@H](Oc3cc(N4CCOCC4)cc4nccnc34)C2)n1 [Compound 357]	< 100
CN(C)Cc1cc(N[C@H]2CC[C@@H](Oc3cc(N4CCOCC4)cc4nccnc34)CC2)ncn1 [Compound 390]	< 100
COc1cncc(NC[C@H]2CC[C@@H](Oc3cc(N4CCOCC4)cc4nccnc34)CC2)c1 [Compound 347]	< 100
Cc1ncncc1N[C@H]1CC[C@@H](Oc2cc(N3CCOCC3)cc3nccnc23)CC1 [Compound 448]	< 100
Cc1nccc(N(C)[C@H]2CC[C@@H](Oc3cc(N4CCOCC4)cc4nccnc34)CC2)n1 [Compound 399]	< 100
Cc1cc(N[C@H]2CC[C@@H](Oc3cc(N4CCOCC4)cc4nccnc34)CC2)cc(C)n1 [Compound 286]	< 100
COc1cncnc1N[C@H]1CC[C@@H](Oc2cc(N3CCOCC3)cc3nccnc23)CC1 [Compound 438]	< 100

Structure (SMILES)	Ki [nM]
CN1CCC(Nc2ncnc(N[C@H]3CC[C@@H](Oc4cc(N5CCOCC5)cc5nccnc45)CC3)c2F)C1 (stereo partly shown) [Compound 381]	< 100
OC1(c2ccc(N[C@H]3CC[C@@H](Oc4cc(N5CCOCC5)cc5nccnc45)CC3)cn2)COC1 [Compound 468]	< 100
Cc1ncc(N[C@H]2CC[C@@H](Oc3cc(N4CCOCC4)cc4nccnc34)CC2)nc1C [Compound 314]	< 100
Cc1cnc(C)c(N[C@H]2CC[C@@H](Oc3cc(N4CCOCC4)cc4nccnc34)CC2)c1 [Compound 441]	< 100
c1cnc2c(O[C@H]3CC[C@@H](Nc4ncc(CCN5CCOCC5)cn4)CC3)cc(N3CCOCC3)cc2n1 [Compound 434]	< 100
c1cnc(NC[C@H]2CC[C@@H](Oc3cc(N4CCOCC4)cc4nccnc34)CC2)nc1 [Compound 348]	< 100
Cc1nccc(N[C@H]2CC[C@@H](Oc3cc(N4CC5CC(C4)O5)cc4nccnc34)CC2)n1 [Compound 353]	< 100
COCCNc1ncnc(N[C@H]2CC[C@@H](Oc3cc(N4CCOCC4)cc4nccnc34)CC2)c1F [Compound 382]	< 100
CN(C)C(=O)N[C@H]1CC[C@@H](Oc2cc(N3CCOCC3)cc3nccnc23)CC1 [Compound 411]	< 100
c1cnc(N[C@H]2CC[C@@H](Oc3cc(N4CC5CC(C4)O5)cc4nccnc34)CC2)nc1 [Compound 291, N-[4-[7-(6-oxa-3-azabicyclo[3.1.1]heptan-3-yl)quinoxalin-5-yl]oxycyclohexyl]pyrimidin-2-amine]	< 100
c1cc(C2CC2)nc(N[C@H]2CC[C@@H](Oc3cc(N4CCOCC4)cc4nccnc34)CC2)n1 [Compound 455]	< 100
Cc1nc(C)c(F)c(N[C@H]2CC[C@@H](Oc3cc(N4CCOCC4)cc4nccnc34)CC2)n1 [Compound 463]	< 100
Cc1ccc(N[C@H]2CC[C@@H](Oc3cc(N4CCOCC4)cc4nccnc34)CC2)cn1 [Compound 444]	< 100
c1cnc2c(O[C@H]3CC[C@@H](Nc4ncc(-c5nnn[nH]5)cn4)CC3)cc(N3CCOCC3)cc2n1 [Compound 460]	< 100
Nc1nccc(N[C@H]2CC[C@@H](Oc3cc(N4CCOCC4)cc4nccnc34)CC2)n1 [Compound 397]	< 100
Cc1cnc(N[C@H]2CC[C@@H](Oc3cc(N4CCOCC4)cc4nccnc34)CC2)cn1 [Compound 282]	< 100
O=C(N[C@H]1CC[C@@H](Oc2cc(N3CCOCC3)cc3nccnc23)CC1)N1CCCCC1 [Compound 416]	< 100
Cc1ccnc(N[C@H]2CC[C@@H](Oc3cc(N4CCOCC4)cc4nccnc34)CC2)c1 [Compound 283]	< 100
